Legend:
[1] = tested on: A549 cells (non-small cell lung carcinoma); assay: MTT cytotoxicity assay, A549; format: cell-based; details: Homo sapiens, A549, 48 h treatment, mean ± SD (n = 3), NA = no activity
Method: (§1) The MTT assay was performed to test the antiproliferative activity of the synthesised compounds, as per the methodology described by Alqahtani and co-workers[35]. Briefly, A549, HepG2, LoVo, MCF-7 and HUVEC cell lines were seeded in 96-cell culture plates (5 × 10^4 per well) and allowed 24 h for adherence. The cells were then treated with different concentrations of each compound, and 5-fluorouracil was used as a positive control. Following the treatment period (48 h), 10 µL of MTT solution (5 mg/mL) was added to each well and the plates were incubated at 37 °C for 2–4 h. Isopropanol (100 µL) acidified with 0.1 N HCl was added to solubilise the formazan products and the plate was kept on a shaker for 10 min. The optical density of each mixture was measured at 570 nm using an enzyme-linked immunosorbent assay plate reader (ELISA plate reader, Bio-Tek, USA). The concentrations of tested compounds required to inhibit cell growth by 50% (IC50) were calculated using a dose-response curve. Cell survival was calculated using the following equation: Cell survival (%)=(OD of treated sample)/(OD of untreated sample)×100

[2] = tested on: HepG2 cells (liver cancer); assay: MTT cytotoxicity assay, HepG2; format: cell-based; details: Homo sapiens, HepG2, 48 h treatment, mean ± SD (n = 3), NA = no activity
Method: as §1

[3] = tested on: LoVo cells (colon cancer); assay: MTT cytotoxicity assay, LoVo; format: cell-based; details: Homo sapiens, LoVo, 48 h treatment, mean ± SD (n = 3), NA = no activity
Method: as §1

[4] = tested on: MCF-7 cells (human breast cancer cell line); assay: MTT cytotoxicity assay, MCF-7; format: cell-based; details: Homo sapiens, MCF7, 48 h treatment, mean ± SD (n = 3), NA = no activity
Method: as §1

[5] = tested on: HUVEC (normal human umbilical vein endothelial cells); assay: MTT cytotoxicity assay, HUVEC; format: cell-based; details: Homo sapiens, HUVEC, 48 h treatment, mean ± SD (n = 3), NA = no activity
Method: as §1

MCF-7 cells [6] = assay: Cell cycle analysis by flow cytometry (propidium iodide); format: cell-based, human; details: 24 h, average ± SD, control 0.75 ± 0.07%
Method: Cell cycle analysis was conducted as previously described by Alqahtani and co-workers[35]. Briefly, MCF-7 cells were seeded in 6-well plates and incubated for 24 h before the addition of various concentrations (10, 20 and 30 µM) of compounds 6 and 10. After incubating for 24 h, the cells were harvested, washed, and resuspended in PBS. The cells were fixed with 70% ethanol at 4 °C for 4 h. The cells were then incubated with RNase (100 µg/mL) and PI (50 µg/mL) for 30 min in the dark. Flow cytometry analysis was performed using Cytomics FC 500 (Beckman Coulter, Brea, CA, USA).

MCF-7 cells [7] = assay: Annexin V-FITC/PI apoptosis assay by flow cytometry; format: cell-based, human; details: 24 h, average ± SD, control 2.9 ± 0.84% (6) / 3.3 ± 0.28% (10)
Method: Apoptosis was measured using the Annexin V/PI detection kit (BioLegend, CA, USA), as per the manufacturer’s instructions. Briefly, MCF-7 cells were treated with different concentrations (10, 20 and 30 µM) of compounds 6 and 10 for 24 h. After treatment, the detached and adherent cells were collected, washed, and resuspended in 100 µL of 1X binding buffer. Then, 5 µL of Annexin V and 5 µL of PI were added to the resuspended cells. After incubating for 15 min in the dark, 400 µL of binding buffer was added to each tube and cell samples were analysed using Cytomics FC 500 (Beckman Coulter, Brea, CA, USA). Data collection and analysis were conducted using the CXP software V. 3.0 (Aspect, Phoenix, AZ, USA).

p53 [8] = assay: RT-PCR, p53 mRNA expression in MCF-7 cells; format: cell-based, human; details: MCF-7, 10, 20 and 30 µM, 24 h, compared to control, β-actin internal control
Method: (§2) MCF-7 cells were cultured with different concentrations (10, 20 and 30 µM) of compounds 6 and 10 for 24 h, and the untreated cells were used as a control. The cells were lysed using Trizol reagent (Invitrogen, USA). Total RNA was extracted as per the manufacturer’s instructions. Total RNA was quantitated by taking 2 µL of resuspended RNA on a Nano drop spectrophotometer (Thermo Scientific, USA) and reverse transcribing an equal amount (1 µg) of RNA to make complementary deoxyribonucleic acid (cDNA) using a Super Script VILO cDNA synthesis Kit (Invitrogen), as per the manufacturer’s protocol, in a final volume of 20 µL. The mixture was incubated at 42 °C for 1 h. The generated cDNA (2 µL) was used to assess the mRNA expression of apoptotic genes, including caspase-7, Bax, Bcl-2, and p53. The actin gene was used as an internal control. RT-PCR was performed using 5x Firepol Master Mix ready to load (Solis BioDyne, Tartu, Estonia), as per the manufacturer’s instructions. The program was run as follows: initial denaturation at 95 °C for 5 min, denaturation at 95 °C for 30 s, annealing at 55 °C for 45 s, elongation at 72 °C for 45 s (30 cycles), and final extension at 72 °C for 10 min. The RT-PCR products were electrophoresed on a 1.2% agarose gel containing ethidium bromide, and the gel was imaged on a Licor machine.

Bax [9] = assay: RT-PCR, Bax mRNA expression in MCF-7 cells; format: cell-based, human; details: MCF-7, 10, 20 and 30 µM, 24 h, compared to control, β-actin internal control
Method: as §2

caspase-7 [10] = assay: RT-PCR, caspase-7 mRNA expression in MCF-7 cells; format: cell-based, human; details: MCF-7, 10, 20 and 30 µM, 24 h, compared to control, β-actin internal control
Method: as §2

Bcl-2 [11] = assay: RT-PCR, Bcl-2 mRNA expression in MCF-7 cells; format: cell-based, human; details: MCF-7, 10, 20 and 30 µM, 24 h, compared to control, β-actin internal control
Method: as §2

p53 [12] = assay: Western blot, p53 protein level in MCF-7 cells; format: cell-based, human; details: MCF-7, 10, 20 and 30 μM, 24 h, β-actin internal control
Method: (§3) MCF-7 cells were treated with compounds 6 and 10 for 24 h. The cells were then harvested and washed twice with 1x PBS, by adding lysis buffer containing 20 mM Tris (pH 7.5), 150 mM NaCl, 1 mM sodium ethylenediaminetetraacetic acid, 1 mM ethylene glycol-bis (β-aminoethyl ether)-N,N,N′,N′-tetraacetic acid, 1% Triton X100, 1 µg/mL leupeptin, and 100 µM phenylmethylsulphonyl fluoride, to prepare the total cell extract. The lysate was cooled on ice for 1 h and clarified by centrifugation at 13000 rpm at 4 °C for 15 min. The supernatants were collected. The protein concentrations of all the samples were determined using Bradford reagent (BioRad, Hercules, CA, USA). For western blot analysis, 30 − 35 µg of the total protein was loaded onto 10% sodium dodecyl sulphate-polyacrylamide gel and then transferred to a polyvinylidene fluoride membrane. The membrane was blocked with 5% bovine serum albumin in 0.1% Tween-tris-buffered saline (TBST) buffer for 2 h at room temperature, and then washed thrice with TBST. The membrane was incubated with primary antibodies for Bcl-2, p53, caspase7, Bax, and β-actin (1:200, Santa Cruz Biotechnology). […] It was then ready for immunodetection; the membrane was incubated with enhanced chemiluminescence western blotting detection reagents (Amersham, Pharmacia Biotech Inc., Piscataway, NJ, USA) and bands were obtained on exposing to X-ray films (Amersham).

Bax [13] = assay: Western blot, Bax protein level in MCF-7 cells; format: cell-based, human; details: MCF-7, 10, 20 and 30 μM, 24 h, β-actin internal control
Method: as §3

caspase-7 [14] = assay: Western blot, caspase-7 protein level in MCF-7 cells; format: cell-based, human; details: MCF-7, 10, 20 and 30 μM, 24 h, β-actin internal control
Method: as §3

Bcl-2 [15] = assay: Western blot, Bcl-2 protein level in MCF-7 cells; format: cell-based, human; details: MCF-7, 10, 20 and 30 μM, 24 h, β-actin internal control
Method: as §3

COc1cccc2c(=O)n(-c3ccc(S(N)(=O)=O)cc3)c(SCC(=O)Nc3ccccc3C)nc12 [Compound 6, 2-((8-Methoxy-4-oxo-3-(4-sulphamoylphenyl)-3,4-dihydroquinazolin-2-yl)thio)-N-(o-tolyl) acetamide]
IC50 [1]: 51.5 ± 1.36 µM | IC50 [2]: 45.6 ± 0.71 µM | IC50 [3]: 22.6 ± 0.86 µM | IC50 [4]: 20.2 ± 0.6 µM | IC50 [5]: 88.27 ± 0.32 µM | proportion of sub-G1 phase cells (MCF-7 cells [6]; MCF-7, 10 µM): 3.35 ± 0.07% | proportion of sub-G1 phase cells (MCF-7 cells [6]; MCF-7, 20 µM): 7.8 ± 0.14% | proportion of sub-G1 phase cells (MCF-7 cells [6]; MCF-7, 30 µM): 22.85 ± 1.2% | proportion of cells in early apoptosis (MCF-7 cells [7]; MCF-7, 10 µM): 7.6 ± 1.4% | proportion of cells in early apoptosis (MCF-7 cells [7]; MCF-7, 20 µM): 11.4 ± 1.97% | proportion of cells in early apoptosis (MCF-7 cells [7]; MCF-7, 30 µM): 18.35 ± 2.4% | expression of p53 mRNA (p53 [8]): increased | expression of Bax mRNA (Bax [9]): increased | expression of caspase-7 mRNA (caspase-7 [10]): increased | expression of Bcl-2 mRNA (Bcl-2 [11]): downregulated | p53 protein level (p53 [12]): markedly increased | Bax protein level (Bax [13]): markedly increased | caspase-7 protein level (caspase-7 [14]): markedly increased | Bcl-2 protein expression (Bcl-2 [15]): down-regulated | melting point: > 350 °C

CCc1cccc(NC(=O)CSc2nc3c(OC)cccc3c(=O)n2-c2ccc(S(N)(=O)=O)cc2)c1 [Compound 10, N-(3-Ethylphenyl)-2-((8-methoxy-4-oxo-3-(4-sulphamoylphenyl)-3,4-dihydroquinazolin-2-yl)thio) acetamide]
IC50 [1]: 48 ± 2.78 µM | IC50 [2]: 42.3 ± 1.59 µM | IC50 [3]: 22.3 ± 2.26 µM | IC50 [4]: 20.9 ± 0.4 µM | IC50 [5]: 32 ± 1.47 µM | proportion of sub-G1 phase cells (MCF-7 cells [6]; MCF-7, 10 µM): 4.3 ± 0.28% | proportion of sub-G1 phase cells (MCF-7 cells [6]; MCF-7, 30 µM): 30.6 ± 0.07% | proportion of cells in early apoptosis (MCF-7 cells [7]; MCF-7, 10 µM): 9.55 ± 0.2% | proportion of cells in early apoptosis (MCF-7 cells [7]; MCF-7, 30 µM): 16 ± 0.84% | expression of p53 mRNA (p53 [8]): increased | expression of Bax mRNA (Bax [9]): increased | expression of caspase-7 mRNA (caspase-7 [10]): increased | expression of Bcl-2 mRNA (Bcl-2 [11]): downregulated | p53 protein level (p53 [12]): markedly increased | Bax protein level (Bax [13]): markedly increased | caspase-7 protein level (caspase-7 [14]): markedly increased | Bcl-2 protein expression (Bcl-2 [15]): down-regulated | melting point: 292 to 294 °C
